# Reference: PMC10958225, “Therapeutic potential of orally applied KB-R7943 in streptozotocin-induced neuropathy in rats” (Heliyon, 2024)
# How the values were obtained:
# [1] = tested on: STZ-treated rats with neuropathy; assay: Mortality and adverse effects during chronic oral treatment; type: in vivo; conditions: p.o. once daily day 28 to 49
# Method: (§1) Three animals per cage were housed for the experiment 2 (Fig. 3B). Rats were gently manipulated daily before undertaking the actual behavior tests. One week after adaptation, the Randl-Stellito (R–S) test, cold plate test (CPT), and formalin tests (FT) were performed at baseline. After that, the diabetes model was made with 48 rats. Twelve animals served as controls. Body weight (BW), coat score (CS), CPT, R–S, and FT were evaluated on day 28th post-STZ, and after that, rats were distributed into the treatment groups as follows. • C-Veh – Controls, vehiculum treatment (n = 12) • NP-Veh – STZ-treated rats with neuropathy, vehiculum treatment (n = 12) • NP-KB-R7943 – 5 mg - STZ-treated rats, with neuropathy, KB-R7943 5 mg/kg treatment (n = 12) • NP-KB-R7943 – 10 mg – STZ-treated rats, with neuropathy, KB-R7943 10 mg/kg (n = 12) • NP-AMT – 10 mg - STZ-treated rats, with neuropathy, amitriptyline 10 mg/kg (n = 12).
# OraPlus was used as a vehiculum for gavage (16 gauge feeding tube 10 ml/kg) in all rats. KB-R7943 in two doses (5 or 10 mg/kg) or amitriptyline 10 mg/kg was applied once daily until day 49. Behavior tests were performed […] after the oral gavage of the corresponding day, in the afternoon, starting from 2 p.m. […] On day 41, an FST was performed, and at 2 p.m., rats were placed individually for 24 h to assess spontaneous physical activity. […]
# [2] = tested on: STZ-treated rats with neuropathy; assay: Formalin test (0.5% formalin); type: in vivo, rat
# Method: (§2) On the day of diabetic state induction, rats were deprived of food for 6 h (from 8 a.m. to 2 p.m.). A single i.p. injection was applied with 55 mg/kg STZ in the ice-cold citrate buffer (0.1 M pH 4.4). The observed polydipsia, polyuria, reduced thriving with lower body weight, and poor coating appearance indirectly indicated the development of diabetes. On day 28, after 6 h of fasting, blood glucose was measured with an Xpress Statstrip Glucometer (Nova Biomedical Corporation, Waltham, MA, USA) from the tail vein. A cut-off value of blood glucose >13 mmol/l was adopted. […] Controls were once i.p. injected with ice-cold citrate buffer 0.1 M pH 4.4 only.
# as §1
# OraPlus was used as a vehiculum for gavage (16 gauge feeding tube 10 ml/kg) in all rats. KB-R7943 in two doses (5 or 10 mg/kg) or amitriptyline 10 mg/kg was applied once daily until day 49. Behavior tests were performed […] after the oral gavage of the corresponding day, in the afternoon, starting from 2 p.m. […] On day 41, an FST was performed, and at 2 p.m., rats were placed individually for 24 h to assess spontaneous physical activity. After that, on day 42, the same battery of the tests as on day 28 were reassessed.
# The formalin test was performed 1 h after the R–S test to decrease the interaction with the mechanical stimulus from the previous test. For the same reason, the left hind paws were injected. A needle (U-100 Insulin Syringe, Beckton and Dickinson, Dublin, Ireland) was used. A low-dose intraplantar injection of formalin 50 mcl 0.5% was done, and rats were placed in individual transparent cases for observation. Two independent observers measured the time spent licking or biting the injected paw, and the first (0–5 min) and the second post-injection phase (20–30 min) were reported in sec.
# [3] = tested on: STZ-treated rats with neuropathy; assay: Forced swim test (FST); type: in vivo, rat; conditions: 10 mg/kg p.o. once daily from day 28, test on day 41, 5-min test
# Method: as §2
# as §1, with “One week after adaptation, the Randl-Stellito (R–S) test, cold plate test (CPT), and formalin tests (FT) were performed at baseline. After that, the diabetes model was made with 48 rats. Twelve animals served as controls.” left out, “12). […]” for “12).”
# [4] = tested on: STZ-treated rats with neuropathy; assay: Coat state score; type: in vivo, rat; conditions: chronic p.o. treatment from day 28, day 42
# Method: as §2
# as §1, with “Rats were gently manipulated daily before undertaking the actual behavior tests. One week after adaptation, the Randl-Stellito (R–S) test, cold plate test (CPT), and formalin tests (FT) were performed at baseline. After that, the diabetes model was made with 48 rats. Twelve animals served as controls.” left out, “12). […]” for “12).”
# Coat state, water consumption, and body weight were evaluated weakly. […] Water consumption was measured per cage. […]
# [5] = tested on: STZ-treated rats with neuropathy; assay: Paw pressure (Randall-Selitto) test; type: in vivo, rat; conditions: 10 mg/kg p.o. once daily, vs. NPveh
# Method: as §2
# as §1, with “One week after adaptation, the Randl-Stellito (R–S) test, cold plate test (CPT), and formalin tests (FT) were performed at baseline. After that, the diabetes model was made with 48 rats. Twelve animals served as controls.” left out, “12). […]” for “12).”
# [6] = tested on: STZ-treated rats with neuropathy; assay: 24-hour spontaneous physical activity; type: in vivo, rat; conditions: 10 mg/kg p.o. once daily from day 28, from day 41
# Method: as §2
# as §1, with “One week after adaptation, the Randl-Stellito (R–S) test, cold plate test (CPT), and formalin tests (FT) were performed at baseline. After that, the diabetes model was made with 48 rats. Twelve animals served as controls.” left out, “12). […]” for “12).”
# [7] = tested on: STZ-treated rats with neuropathy; assay: Cold plate test; type: in vivo, rat; conditions: 10 mg/kg p.o. once daily, end of the trial
# Method: as §2
# as §1, with “Rats were gently manipulated daily before undertaking the actual behavior tests. One week after adaptation, the Randl-Stellito (R–S) test, cold plate test (CPT), and formalin tests (FT) were performed at baseline. After that, the diabetes model was made with 48 rats. Twelve animals served as controls.” left out, “12). […]” for “12).”
# This test was used for allodynia testing. […] Two independent observers recorded the time-to-paw lifting. […]
compound,measurement,setting,value
CN(C)CCC=C1c2ccccc2CCc2ccccc21 [amitriptyline],mortality during treatment,[1],No one rat died
same,effect on formalin test first phase (0–5 min),"[2]; 10 mg/kg p.o. once daily, vs. NP-Veh",attenuated
same,effect on formalin test second phase (20–30 min),"[2]; amitriptyline 10 mg/kg, KB-R7943 5 and 10 mg/kg p.o. once daily, vs. NPveh, dose-dependent",attenuated
same,immobility time in FST,[3],137.50 ± 31.94 s
same,effect on coat score,[4],ameliorated
same,effect on mechanical allodynia (R–S test),[5],partly reversed
same,24-h spontaneous physical activity,[6],1678.33 ± 282.00 beam breaks
same,effect on cold allodynia (cold plate test),[7],demonstrated a reversal effect
